The text below walks through data of patent publication US10697960B2, “CXCR4 and ROBO1 expression as markers for autoimmune diabetes” (BOARD OF SUPERVISORS OR LOUISANA STATE UNIVERSITY AND …, priority 2012, dated 2020).

For series [1], the system named is adoptive transfer models in mice. Particulars: cited from earlier work.
In series [2] the test system is NOD/ShiLtJ T cells on TNFα-activated MS1 islet endothelial cells. Kind of series: Parallel plate flow chamber T cell adhesion assay with SDF-1 peptide mimetic. The class given is cell-based, mouse. Particulars: 150 mPa; for TNFα-induced firm adhesion of T cells (fold change in number of adherent cells): MS1 cells treated 10 minutes with mimetic at 200, 1000 or 5000 ng/ml after 10 ng/ml TNFα, versus TNFα alone. How it is done: Hydrodynamic flow chamber assays were performed as otherwise described in C. Sharp et al. (2008). Briefly, T cells isolated as described above were labeled with CellTracker Green (C7025; Life Technologies, Carlsbad, Calif., USA), rinsed, and resuspended at a concentration of 2×10^6 cells/ml in phenol red-free Hanks' balanced salt solution (HBSS). The cells were placed in a beaker that had been previously coated with Sigmacote (Sigma-Aldrich), kept at 37° C., and stirred at 60 rev/min. A flow chamber insert and gasket with a 0.5 cm flow width and 250 μm thickness (GlycoTech, Gaithersburg, Md., USA) were used with 35 mm cell culture dishes containing confluent MS1 cell cultures to form a parallel plate flow chamber. To activate endothelial cells, MS1 cells were treated for 4 to 6 hours at 37° C. with 10 ng/ml recombinant mouse TNFα (T7539; Sigma).
For the SDF-1 peptide mimetic T cell adhesion assay, MS1 cells were rinsed with HBSS and treated for 10 minutes with an SDF-1 peptide mimetic (AYWKENKEQ with two branched lysines as a linker between the two motifs, SEQ ID NO 1) at […]. This peptide was a linearized version of a cyclized SDF-1 analogue reported by Tudan et al., “C-terminal cyclization of an SDF-1 small peptide analogue dramatically increases receptor affinity and activation of CXCR4 receptor,” J. Med. Chem., vol. 45, pp. 2024-31 (2002). T cells were pumped through polypropylene tubing by a syringe pump (KD Scientific, Holliston, Mass., USA) across the endothelial monolayer at a physiological shear stress of 150 mPa. Real-time digital video images (minimum 28 frames/second) were captured with an epifluorescence microscope (TE-2000 Eclipse; Nikon, Tokyo, Japan) and digital camera (Model C4742-95-12ER: Hamamatsu Photonics, Hamamatsu, Japan). Simple PCI software (Hamamatsu Photonics) was used to analyze the video and to measure T cell rolling velocities. Cells were considered firmly adherent if they remained stationary for 10 seconds within the field of view. A minimum of three videos per plate and four plates per condition were used for analysis.
We examined whether a linear SDF-1 peptide mimetic containing the receptor-binding site could replicate the effect of full length SDF-1 in blocking adhesion of T cells to activated endothelium. MS1 cells were treated for 4 hours with 10 ng/ml TNFα, followed by treatment for 10 minutes with an SDF-1 peptide mimetic at 200, 1000, or 5000 ng/ml. Cells were then tested in a parallel plate flow chamber cell adhesion assay. Fluorescently labeled T cells obtained from NOD/ShiLtJ mice flowed over the endothelial monolayers at 150 mPa. […] Leucocyte adhesion videos were analyzed to calculate T cell rolling velocity and to determine whether the decrease in firm adhesion was due to a decreased number of rolling cells.

The test system of the next series is CD34^+ cells. As to conditions: at much higher concentrations than SDF-1; cited from earlier work.
A further series deals with NOD/LtSz Rag1^−/− mice. In words: Diabetes adoptive transfer of diabetogenic splenocytes. The class given is in vivo, mouse. Particulars: for blood glucose levels compared with PBS treatment: 4 to 5 weeks post-transfer. On the procedure: Single cell suspensions of splenocytes were isolated from spleens of spontaneously diabetic female NOD/ShiLtJ mice as otherwise described in J. Glawe et al. (2009) Genetic deficiency of Itgb2 or ItgaL prevents autoimmune diabetes through distinctly different mechanisms in NOD/LtJ mice. Diabetes 58: 1292-1301, Erythrocytes were lysed with 150 mM NH4Cl, 1.0 mM/l KHCO3, and 0.1 mM disodium EDTA, and then resuspended in PBS at 200×10^6 splenocytes per ml. Female NOD/LtSz Rag1^−/− mice were injected retro-orbitally with 20×10^6 splenocytes.
The recipient mice were then injected retro-orbitally, either once or three times per week, with the SDF-1 peptide mimetic CTCE-0214 (SEQ ID NO. 2, KPVSLSYRCPCRFF-Linker-LKWIQEYLEKALN-OH) (British Canadian BioSciences, Vancouver, BC, Canada) at 1 or 10 mg/kg, or with PBS. See K Li, et al., “Small peptide analogue of SDF-1a supports survival of cord blood CD34+ cells in synergy with other cytokines and enhances their ex vivo expansion and engraftment into nonobese diabetic/severe combined immunodeficient mice,” Stem Cells, vol, 24, pp. 56-64 (2006); R. Zhong et al., “Small peptide analogs to stromal derived factor 1 enhance chemotactic migration of human and mouse hematopoietic cells,” Experimental Hematology, vol 32, pp. 470-475 (2004); A. Faber at al., “The many facets of SDF-1, CXCR4 agonists and antagonists on hematopoietic progenitor cells,” Journal of Biomedicine and Biotechnology, Article ID 26065; doi: 10.1155/200726065 (2007). Blood glucose was measured twice per week via a tail stick assay (Ascensia Glucometer Elite; Bayer, Leverkusen, Germany). Mice were considered hyperglycaemic following two consecutive measurements at 13.9 mM (250 mg/dl) glucose. Another SDF-1 mimetic that could be used is the CTCE-9908 peptide disclosed by A. Faber at al. (2007).

For series [3], the system named is NOD/ShiLtJ T cells on VCAM-1- and ICAM-1-coated plates. In words: SLIT2 T cell detachment assay on VCAM-1- and ICAM-1-coated plates. The class given is cell-based, mouse. Particulars: SDF-1 plus 20 μg/ml SLIT2 versus SDF-1 alone. On the procedure: T cell detachment assays were performed as otherwise described in C. Sharp et al. (2008). T cells were injected into the tubing via an inlet port upstream of the flow chamber at a concentration of 2×10^6 cells/ml and allowed to firmly adhere under static conditions for 15 minutes. Next, shear stress was initiated and increased in a step-wise manner every 30 seconds as follows: 35, 56, 91, 224, 504, and 980 mPa. The assay was recorded by video, which was analyzed to determine the percentage of cells detached at the end of each shear stress interval. For the anti-ROBO1 detachment assay, MS1 cells were treated for […] at 37° C. with TNFα as described above and then with 100 ng/ml recombinant mouse SDF-1α (460-SD; R&D Systems). T cells were pre-treated for 30 minutes at 37° C. with 20 μg/ml ROBO1 blocking antibody (GT15144; Neuromics, Edina, Minn., USA) or isotype control (GT15900; Neuromics).
For the SLIT2 detachment assay, the following modifications were made. Vascular cell adhesion molecule 1 (VCAM-1)- and intercellular cell adhesion molecule 1 (ICAM-1)-coated plates were substituted for confluent monolayers of MS1 cells to isolate the specific ligand and receptor interactions involved. Plates were treated by tracing five 5 mm diameter circles aligned in one row in the center of a 100 mm diameter tissue culture dish using a PAP pen, and then applying 15 μl of 1 mg/ml protein A to each circle for 30 minutes. Plates were rinsed twice with PBS and blocked for 30 minutes with 5% (wt/vol) BSA in PBS. Plates were rinsed and each circle was then treated for 30 minutes with 15 μl of a solution containing 5 μg/ml ICAM-1/Fc chimera (796-IC; R&D Systems) and 5 μg/ml VCAM-1/Fc chimera (643-VM; R&D Systems), or PBS (control). Plates were rinsed and stored at 4° C. T cells were suspended in HBSS containing, 10 μg/ml heparin sodium and treated for 15 minutes at 37° C. with 250 ng/ml SDF-1 and 20 μg/ml recombinant mouse SLIT2 (5444-SL; R&D Systems) before use. A Glycotech rectangular flow chamber with a 250 μm thick gasket and a 1 cm wide flow path was used. […]

“Also recorded” adds a separate entry of the source. Square brackets hold non-standard residues; d marks the D form. Ends that are not written are not given here. Linker = not defined here

For the molecule `c1cc(CN2CCCNCCNCCCNCC2)ccc1CN1CCCNCCNCCCNCC1` [AMD3100], the development of diabetes result in series [1] (disruption of SDF-1-CXCR4 binding) is “accelerate the development of diabetes”. In series [1] (mouse, in vivo), the beta cell apoptosis result is “induce beta cell apoptosis”.

For “AYWKENKEQ with two branched lysines as a linker between the two motifs (also: two branched lysines as a linker between the two motifs) [SDF-1 peptide mimetic, linearized version of a cyclized SDF-1 analogue reported by Tudan et al]”, the “TNFα-induced firm adhesion of T cells (fold change in number of adherent cells)” value in series [2] was “prevented NOD T cell adhesion; also recorded: significantly reduced; also recorded: reversed”. Besides, the “number of rolling cells” value in series [2] (TNFα-treated MS1 cells, data not shown) is reported as “did not decrease”. The “T cell rolling velocity” value in series [2] (TNFα-treated endothelial cells, versus control) is on record as “did not significantly affect”.

With “KPVSLSYRCPCRFF-Linker-LKWIQEYLEKALN-OH (KPVSLSYRCPCRFF[Linker]LKWIQEYLEKALN-OH; cysteine pairing not given here; reading uncertain; also: printed as KPVSLSYRCPCRFF-Linker-LKWIQEYLEKALN-OH) [CTCE-0214, 2, small peptide CXCR4 agonist from British Canadian BioSciences]”, the “TNFα-induced firm adhesion of T cells (fold change in number of adherent cells)” value in series [2] is reported as “can reduce”. In the series on CD34^+ cells, the “migration of CD34^+ cells” value is reported as “increases migration”. Besides, the “progression of autoimmune diabetes” value with NOD/LtSz Rag1^−/− mice (1 mg/kg) was “almost no effect”. The “blood glucose levels compared with PBS treatment” value in the series on NOD/LtSz Rag1^−/− mice (1 mg/kg three times per week) was “not”; in the series on NOD/LtSz Rag1^−/− mice (10 mg/kg three times per week), “significantly reduced glucose levels”. Moreover, the “blood glucose levels compared with PBS-treated mice” value in the series on NOD/LtSz Rag1^−/− mice (10 mg/kg once per week, retro-orbital, 5.5 and 6 weeks post-transfer) is reported as “significantly reduced glucose levels”. For the same molecule, the “development of hyperglycaemia compared with PBS treatment” value in the series on NOD/LtSz Rag1^−/− mice (10 mg/kg one time per week) and with NOD/LtSz Rag1^−/− mice (10 mg/kg three times per week) was “delayed development of hyperglycaemia” throughout. In addition, in the series with NOD/LtSz Rag1^−/− mice (10 mg/kg where a dose is stated), the “adoptive transfer / progression of autoimmune diabetes, onset of hyperglycaemia” value is recorded as “significantly delayed the onset of hyperglycaemia; also recorded: therapeutically beneficial; also recorded: effectively delayed adoptive transfer of diabetes; also recorded: slowed the development of diabetes”. In the series on NOD/LtSz Rag1^−/− mice (once per week versus three times per week), the “effect of dosing frequency on incidence of hyperglycaemia” value was “better reduction in the incidence of hyperglycaemia at a dosing of once per week; also recorded: more beneficial effect at once-a-week dosing”.

B1: SLIT2: recombinant mouse SLIT2 (5444-SL; R&D Systems), ligand of ROBO1 (protein)
chain: QACPAQCSCSGSTVDCHGLALRSVPRNIPRNTERLDLNGNNITRITKIDFAGLRHLRVLQLMENRISTIERGAFQDLKELERLRLNRNNLQLFPELLFLGTAKLYRLDLSENQIQAIPRKAFRGAVDIKNLQLDYNQISCIEDGAFRALRDLEVLTLNNNNITRLSVASFNHMPKLRTFRLHSNNLYCDCHLAWLSDWLRQRPRVGLYTQCMGPSHLRGHNVAEVQKREFVCSGHQSFMAPSCSVLHCPAACTCSNNIVDCRGKGLTEIPTNLPETITEIRLEQNSIRVIPPGAFSPYKKLRRLDLSNNQISELAPDAFQGLRSLNSLVLYGNKITELPKSLFEGLFSLQLLLLNANKINCLRVDAFQDLHNLNLLSLYDNKLQTVAKGTFSALRAIQTMHLAQNPFICDCHLKWLADYLHTNPIETSGARCTSPRRLANKRIGQIKSKKFRCSGTEDYRSKLSGDCFADLACPEKCRCEGTTVDCSNQRLNKIPDHIPQYTAELRLNNNEFTVLEATGIFKKLPQLRKINFSNNKITDIEEGAFEGASGVNEILLTSNRLENVQHKMFKGLESLKTLMLRSNRISCVGNDSFIGLGSVRLLSLYDNQITTVAPGAFDSLHSLSTLNLLANPFNCNCHLAWLGEWLRRKRIVTGNPRCQKPYFLKEIPIQDVAIQDFTCDDGNDDNSCSPLSRCPSECTCLDTVVRCSNKGLKVLPKGIPKDVTELYLDGNQFTLVPKELSNYKHLTLIDLSNNRISTLSNQSFSNMTQLLTLILSYNRLRCIPPRTFDGLKSLRLLSLHGNDISVVPEGAFNDLSALSHLAIGANPLYCDCNMQWLSDWVKSEYKEPGIARCAGPGEMADKLLLTTPSKKFTCQ
Take B1: the “shear-mediated T cell detachment from VCAM-1- and ICAM-1-coated plates” value is “significant increase in detachment; also recorded: promoted detachment” in series [3], “stimulated detachment” in series [3] (listed as Slit-2 peptide containing the LRR domain 2) and “reversed” in series [3] (listed as recombinant SLIT2).
